# Where a name gives a salt, the structure may show the parent alone. Read-outs that look alike come from different tables or passages of the source.
# What was measured:
# [1] = system: vessel patency in FeCl3 induced thrombosis in rat carotid artery; test: Rat carotid artery FeCl3 induced thrombosis model; assay type: in vivo
# Method: Rat FeCl3 model adapted from Kurz, K. D. et al. Thromb. Res. 1990; 60(4):269-280, incorporated by reference in its entirety herein, utilizing the left carotid artery. A stenosis of the artery was applied with a silk ligature reducing blood flow by 50% with a light crush injury followed by application of 50% FeCl3 for the duration of the experiment. Blood flow was monitored via pulsed Doppler flow probe and recorded for 90 minutes post-FeCl3 application. Enoxaparin and Betrixaban administered IV. Clopidogrel administered orally Q.D. for 3 days.
# PT and aPTT = test: Ex vivo PT and aPTT in rat carotid model; settings: 3 mg/kg/day
# Method: The third model investigated inhibition of ^111In labeled platelet deposition on dacron grafts and expansion chambers placed in femoral arteriovenous shunts in baboons. In all models tested, betrixaban and enoxaparin were administered as IV infusions and clopidogrel was dosed orally for three days. Ex vivo PT and aPTT were measured in all models.
# [2] = system: TF-induced plasma thrombin generation; test: TF-induced plasma thrombin generation assay (plasma pool); assay type: biochemical, human
# Text: For the in vitro studies, a plasma pool was generated from blood collected via venipuncture into 3.2% (1:9 v/v) tri-sodium citrate from a minimum of ten donors. The specific thrombin substrate used was Z-GGR-AMC (Bachem). Tissue factor (Innovin, “TF”) was purchased from Dade Behring. Rabbit anti-human TF IgG and purified recombinant human TF were from American Diagnostica. COATEST LMW Heparin/Heparin Kits were from Chomogenix. Source of anticoagulants tested were as follows: enoxaparin sodium (Aventis Pharmaceuticals), fondaparinux sodium (Glaxo Smith Kline), bivalirudin (The Medicines Company), fXa inhibitor C921-78 (Betz, A. et al. Biochem., 1999; 38-14582-14591); rivaroxaban and razaxaban.
# Thrombin generation in the plasma pool in the absence and presence of various anticoagulants and in warfarin treated patients was initiated by the addition of Innovin and calcium. Thrombin generation was measured by the continuous signal generated by cleavage of thrombin substrate over a 10 min period in a FlexStation fluorescence reader ([…]). The fluorescence signal (Max-Min relative fluorescence units) is presented as units (RFU) or arbitrary unites (AU) of thrombin generation and anti-fXa units were measured by Coatest. Quantitation of TF concentration in Innovin was carried out by immunoblotting with rabbit anti-human TF IgG, followed by densitometry and comparison with purified human TF (residues 1-263, expressed in baculovirus).
# [3] = Salt selection properties; assay type: physicochemical
# [4] = system: thrombin, factor VIIa, factor IXa, activated protein C, tissue plasminogen activator, plasmin and trypsin; test: Amidolytic assays for related proteases (specificity); assay type: biochemical; settings: relative to human fXa
# [5] = system: thrombus growth (platelet deposition, fibrin deposition) in arteriovenous shunt; test: Thrombogenic device in arteriovenous shunt in baboons; assay type: in vivo, baboon
# [6] = system: clotting parameters (ACT, PT, aPTT, anti fXa units, plasma thrombin generation); test: Ex vivo coagulation measurements and bleeding time in baboon model
# [7] = Plasma concentration of betrixaban in baboon model; assay type: in vivo
# [8] = system: tissue factor initiated thrombin generation in human whole blood; test: Whole blood prothrombinase / tissue factor initiated thrombin generation assay; assay type: biochemical
# Method: Thrombin activity was quantitated by cleavage of the fluorogenic substrate. […] Relative fluorescence unit (RFU) measurements of representative donor is shown.
# Thrombin generation assays were performed as described in Example 4, with compounds added ex vivo to human whole blood. PT and aPTT values in various species determined from compounds added to platelet poor plasma. Samples were run on an ACL 3000plus (Coulter), PT determined using Dade® Thromboplastin C plus and aPTT determined using Dade® Actin® FS Activated PTT reagent.
# [9] = system: prothrombin time in rat plasma; test: In vitro extension of PT in rat plasma
# [10] = system: prothrombin time in rabbit plasma; test: In vitro extension of PT in rabbit plasma
# [11] = system: prothrombin time in baboon plasma; test: In vitro extension of PT in baboon plasma
# [12] = system: prothrombin time in human plasma; test: In vitro extension of PT in human plasma
# [13] = system: thrombus mass in rabbit abdominal vena cava; test: Rabbit vena cava thrombosis model (clot accretion on cotton threads); assay type: in vivo; settings: 3 mg/kg IV infusion
# Method: Multiple doses of betrixaban were evaluated in three animal models. […] Efficacy in rabbit venous thrombosis was determined by measuring the thrombus accretion on cotton threads placed in the vena cava by means of a catheter inserted into the left femoral vein, as described by Hollenbach et al., Thromb. Haemost. 1994; 71:357-362, incorporated by reference in its entirety herein. The decrease in thrombus weight following a two hour infusion of compound was expressed relative to vehicle control. See also Sinha, et al., Eur. J. Pharmacology. 395:51-59 (2000), incorporated by reference in its entirety herein.
# venous thromboembolism = test: Randomized trial after total knee replacement: VTE incidence; assay type: in vivo, human; settings: for VTE % (95% CI): 10 to 14 days after TKR
# Method: The primary efficacy endpoint was the incidence of venous thromboembolism (“VTE”) (symptomatic or asymptomatic deep vein thrombosis on a mandatory unilateral venogram or symptomatic pulmonary embolism) through Day 10 to 14. Safety endpoints included the incidence of major and clinically significant nonmajor bleeds through the day after venography. All efficacy and bleeding endpoints were adjudicated by a blinded, independent central adjudication committee. […] Enoxaparin was administered subcutaneously 12 to 24 hours after surgery and every 12 hours (q 12 h) thereafter. Treatment continued for 10 to 14 days unless a protocol-specified stopping criterion had been met. After discharge from the hospital, patients self-administered study medication. The last dose of study medication was administered the morning of the scheduled mandatory venography of the operated leg (Day 10 to 14).
# [14] = Randomized trial after total knee replacement: bleeding and tolerability; parameters: species or system human; settings: in vivo
# Text: The primary efficacy endpoint was the incidence of venous thromboembolism (“VTE”) (symptomatic or asymptomatic deep vein thrombosis on a mandatory unilateral venogram or symptomatic pulmonary embolism) through Day 10 to 14. Safety endpoints included the incidence of major and clinically significant nonmajor bleeds through the day after venography. All efficacy and bleeding endpoints were adjudicated by a blinded, independent central adjudication committee.
# [15] = system: thrombin generation, anti-Xa activity, aPTT, PT, INR in patient plasma; test: Randomized trial after total knee replacement: pharmacodynamic measurements; assay type: in vivo, human
# Method: Blood samples for assessment of plasma drug concentrations and pharmacodynamic measurements were obtained at screening, 1 to 4 hours after administration of the morning dose of study medication on Day 2, on the day of discharge and prior to the mandatory venogram on Day 10 to 14. Plasma samples were analyzed for betrixaban using high-performance-liquid-chromatography with tandem mass spectrometry. The method was validated for a range from 0.100-50.0 ng/mL, based on the analysis of 0.2 mL plasma. Quantitation was performed using a calibration standard curve generated from weighted least square regression analysis. […] The anti-Xa unit assay was adapted from the Coatest LMW heparin kit (Diapharma) and modified to a 96-well plate format. In this assay, standards and patient samples were assayed in duplicate and the limit of quantification was 0.05 anti-Xa U/mL. Thrombin generation was initiated by the addition of tissue factor (Innovin, Dade Behring) and calcium to citrate anticoagulated patient plasma (0.1 mL). Formation of thrombin was measured by cleavage of a specific thrombin substrate (Z-GGR-AMC, Bachem) over a 10 minute period. Relative fluorescence units were measured in a FlexStation fluorescence reader (Molecular Devices) and used for quantitation of thrombin generation. All patient plasma samples were assayed in triplicate and inhibition of thrombin generation reported as change from baseline relative fluorescent unit for each individual.
# [16] = Baboon Arteriovenous, 0.49 mg/kg
molecule,measurement,setting,value
COC(=O)[C@H](c1ccccc1Cl)N1CCc2sccc2C1 [Clopidogrel],Antithrombotic Activity,[1]; 3 mg/kg/day orally for 3 days,80% patency
same,APTT fold change,PT and aPTT,1.03 fold
same,PT fold change,PT and aPTT,1.01 fold
CN(C)Cc1nccn1-c1ccc(NC(=O)c2cc(C(F)(F)F)nn2-c2ccc3onc(N)c3c2)c(F)c1 [Razaxaban],IC50,[2]; read-out: IC50,125 nM
O=C(NC[C@H]1CN(c2ccc(N3CCOCC3=O)cc2)C(=O)O1)c1ccc(Cl)s1 [Rivaroxaban],IC50,[2]; read-out: IC50,80 nM
COc1ccc(NC(=O)c2ccc(C(=N)N(C)C)cc2)c(C(=O)Nc2ccc(Cl)cn2)c1 [betrixaban maleate],"crystallinity, thermal and hydrolytic stability",[3],excellent
COc1ccc(NC(=O)c2ccc(C(=N)N(C)C)cc2)c(C(=O)Nc2ccc(Cl)cn2)c1 [betrixaban],specificity against related proteases,[4],"greater than 86,000 fold"
same,Antithrombotic Activity (arterial),[5]; [16],32% inhibition
same,Antithrombotic Activity (venous),[5]; [16],90% inhibition
same,Platelet deposition at 140 minutes,"[5]; Dose 3 (26-38 ng/ml), P<0.05",significant decrease compared to control
same,% Inhibition of Fibrin Formation,[5]; Dosed Group 1,−0.38%
same,% Inhibition of Platelet Deposition,[5]; Dosed Group 1,29.71%
same,% Inhibition of Fibrin Formation,[5]; Dosed Group 2,37.50%
same,% Inhibition of Platelet Deposition,[5]; Dosed Group 2,44.20%
same,% Inhibition of Fibrin Formation,[5]; Dosed Group 3,71.97%
same,% Inhibition of Platelet Deposition,[5]; Dosed Group 3,65.22%
same,% Inhibition of Fibrin Formation,[5]; Dosed Group 4,87.12%
same,% Inhibition of Platelet Deposition,[5]; Dosed Group 4,88.77%
same,Platelet deposition at 140 minutes,"[5]; dose 4 (54-88 ng/ml), P value<0.01",significant decrease compared to control
same,Template bleeding times,[6]; any of the betrixaban treated animals,not perturbed
same,Anti fXa units,[6]; highest dose,0.31 Units/ml
same,inhibition of plasma thrombin generation (ex vivo),[6]; highest dose,72%
same,inhibition of plasma thrombin generation (ex vivo),[6]; lowest dose,13%
same,Anti fXa units,[6]; three lower doses,below the limit of quantitation
same,Plasma Concentration Range of Betrixaban,[7]; Dosed Group 1,7 to 10 ng/mL
same,Plasma Concentration Range of Betrixaban,[7]; Dosed Group 2,13 to 21 ng/mL
same,Plasma Concentration Range of Betrixaban,[7]; Dosed Group 3,26 to 38 ng/mL
same,Plasma Concentration Range of Betrixaban,[7]; Dosed Group 4,54 to 88 ng/mL
same,"suppressing both markers of thrombin generation, compared to fondaparinux (200 nM)","[8]; 200 nM, human whole blood",more potent
same,TAT and F1.2 generation,[8]; human whole blood,significantly inhibited
same,tissue factor initiated thrombin generation,[8]; human whole blood,dose-dependent inhibition
same,platelet mediated prothrombinase activity,[8]; whole blood prothrombinase assay,dose-dependently inhibited
same,concentration for 2× change of PT,[9],8.9 µM
same,concentration for 2× change of PT,[10],1.6 µM
same,concentration for 2× change of PT,[11],1 µM
same,concentration for 2× change of PT,[12],0.4 µM
same,Antithrombotic Activity,[13],76% inhibition
same,Antithrombotic Activity,[1]; 19.1 mg/kg IV,90% patency
same,VTE % (95% CI),venous thromboembolism; 15 mg BID orally,20 (12-32) %
same,VTE % (95% CI),venous thromboembolism; 40 mg BID orally,15 (8-27) %
same,preventing VTE after TKR,venous thromboembolism; in vivo,effective
same,safety and tolerability,[14],safe and well tolerated
same,effect on anti-Xa activity,"[15]; 15 mg, compared with enoxaparin",less
same,effect on the inhibition of thrombin generation,"[15]; 40 mg, TKR patients, compared with enoxaparin",more pronounced
same,effect on anti-Xa activity,"[15]; 40 mg, compared with enoxaparin",similar
same,"other coagulation parameters (i.e. aPTT, PT and INR)",[15]; TKR patients,did not appreciably affect
Bivalirudin,IC50,[2],2.4 µg/mL
